Measurements taken from patent US7361633B2, “Screening method and anti-tumor drug candidate obtained therefrom” (Ardana Bioscience Limited, priority 2002, dated 2008).
Entries after “also recorded” stand apart in the source; their conditions may differ. Square brackets hold non-standard residues; d marks the D form. Peptide text beside a SMILES is read from it. dPhe(4-Cl) = N[C@H](Cc1ccc(Cl)cc1)C(=O)O; d2Nal = N[C@H](Cc1ccc2ccccc2c1)C(=O)O; dCit = NC(=O)NCCC[C@@H](N)C(=O)O; d3Pal = N[C@H](Cc1cccnc1)C(=O)O; pGlu = O=C1CC[C@@H](C(=O)O)N1

Experiments:
[1] = test system: PTX-sensitive/Gαi-dependent MAPK isoform activation; assay: PTX-sensitive/Gαi-dependent MAPK isoform activation (data not shown); format: cell-based
[2] = test system: androgen-resistant tumor cells; conditions: compared with androgen-dependent prostate cancers; Jungwirth et al; cited from earlier work
[3] = test system: human JEG-3 choriocarcinoma cells; assay: Anti-proliferative effect on JEG-3 cells, viable cell count after 5 days; format: cell-based; conditions: 5 days continuous treatment, trypan blue exclusion
Description: (§1) Low cell density JEG-3 cell subcultures were treated for 5 days continuously with the indicated doses of GnRH I (a), GnRH II (b), antagonist 135-18 (c) or antagonist 135-25 (d) added directly to Dulbecco's modified Eagles medium supplemented with 10% FCS, glutamine and penicillin/streptomycin. Ligands were replenished every 24 h. At the end of the stimulation period cells were removed from the growth plates with trypsin and mixed with trypan blue dye (enters non-viable cells). Only viable cells were therefore counted using a haemocytometer in quadruplicate for each ligand dose. The bars in each histogram represent the mean±s.e. mean of n=4 experiments.
(§2) Each cell type was plated at an initial minimal confluency (10-20%) to allow for 5 days of normal continual cell growth that would not result in 100% cell confluency by day 5. Each ligand was incubated, in triplicate for every experimental concentration, with the cell monolayers for five days with replacement of the ligand every 12 h. At the end of the stimulation period the number of viable cells was estimated by their capacity to prevent uptake of Trypan Blue stain.

[4] = test system: human benign prostate hyperplastic (BPH-1) cells; assay: Anti-proliferative effect on BPH-1 cells, viable cell count after 5 days; format: cell-based; conditions: 5 days continuous treatment, trypan blue exclusion
Description: as §1, with “density BPH-1” for “density JEG-3”, “(b), Ant” for “(b), antagonist”, “or Ant” for “or antagonist”, “to RPMI 1640” for “to Dulbecco's modified Eagles”, “removed form” for “removed from”, “plates by” for “plates with”
as §2
Employing an identical growth and stimulation methodology to that described in the previous paragraph and in FIG. 1 we exposed the hyperplastic cell line, BPH-1, to the same panel of GnRH ligands and antagonistic analogues (FIG. 2). Reminiscent of FIG. 1 both endogenous GnRH agonists exert a similar mode of action with respect to their dose-dependent inhibition of BPH-1 cell growth over the five day stimulation period.

PLC-β = assay: Inositol phosphate accumulation in BPH-1 cells; format: cell-based, human
Description: BPH-1 cells were pre-incubated with ^3H-myoinositol (1 μCi/ml) for 48 h prior to ligand stimulation (60 minutes). Ligand stimulated inositol phosphate production was measured in the presence of 10 mM LiCl. […] IP accumulation can be used as a read out/marker for Gαq activation since the activation of PLCβ is PTX-resistant.

[5] = test system: HEK293 cells stably expressing the Type I GnRHR (SCL60); assay: Anti-proliferative effect on SCL60 cells, viable cell count after 5 days; format: cell-based, human; conditions: 5 days continuous treatment, trypan blue exclusion
Description: An identical methodology of measuring cell growth was employed as in FIG. 1.
as §2
We further investigated the nature of the ligand-receptor specificity of the anti-proliferative effects of GnRH receptor systems by studying our ligand panel effects upon a model cell background, i.e. SCL60 HEK293 cells stably expressing the rat Type I GnRHR. […] We attribute this greater effect of the GnRHR ligands upon the SCL60 cells to the much greater level of receptor expression in the SCL60 cells.

ERK1/2 [6] = assay: ERK1/2 phosphorylation immunoblot in JEG-3 cells; format: cell-based, human; conditions: 100 nM, 10 minutes
ERK1/2 [7] = assay: ERK1/2 phosphorylation immunoblot in BPH-1 cells; format: cell-based, human; conditions: FIG. 5 panel c
Description: The panel depicts a representative anti-phospho-ERK1/2 w-c lysate immunoblot of stimulated BPH-1 cell extracts. […] Each bar of the histogram represents the mean±s.e. mean of three to four experimental replicates. […] Panel c) depicts the extent of ERK1/2 activation in BPH-1 cells induced by stimulation with GnRH I, II, Ant 135-25 and Ant 135-18. […] Each bar of the histogram represents the mean± s.e. mean of three to four experimental replicates.

[8] = target: T1, marmoset Type II GnRH receptor (Callithrix jacchus, UniProt Q95MG6); assay: Inositol phosphate accumulation in αT4-II cells; format: cell-based; conditions: GnRH II 10 nM
T1 construct: expressed in transfected cells
T1 sequence (Q95MG6 1-380): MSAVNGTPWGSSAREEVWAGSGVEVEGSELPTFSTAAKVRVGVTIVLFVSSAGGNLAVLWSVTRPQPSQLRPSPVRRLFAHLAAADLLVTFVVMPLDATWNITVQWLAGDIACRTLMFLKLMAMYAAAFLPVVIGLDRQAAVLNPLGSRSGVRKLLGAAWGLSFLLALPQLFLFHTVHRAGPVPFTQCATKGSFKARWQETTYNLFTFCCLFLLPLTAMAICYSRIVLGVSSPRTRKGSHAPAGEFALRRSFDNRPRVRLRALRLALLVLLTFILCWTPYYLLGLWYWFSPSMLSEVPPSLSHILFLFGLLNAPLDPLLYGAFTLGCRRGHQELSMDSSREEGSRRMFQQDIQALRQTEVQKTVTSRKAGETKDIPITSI
Description: The histograms in panels a and b represent inositol phosphate accumulation data from HEK293 cells stably expressing the Type I GnRH receptor only (SCL60). […] In panels c and d, the liberated inositol phosphates generated were measured in the proto-gonadotrope cells (αT4) stably expressing the marmoset Type II GnRH receptor (designated αT4-II).
The ability of the four major agents under study at activating ectopically expressed Type I or Type II GnRHR were tested (FIG. 12). The classical signal transduction cascade activated by GnRHR stimulation is the Gαq-PLC-β cascade. Both Type I and II receptor can stimulate the Gαq-PLC type-G-protein and activate PLC-β which cleaves phosphatidylinositol bisphosphate (PIP2) into inositol trisphosphate (IP3), other lower inositol phosphates (IPn) and diacylglycerol (DAG). The major function of IP3 is to elevate intracellular Ca^2+ while DAG causes the activation of specific PKC (protein kinase C) isoforms.
Panels a and b of FIG. 12 depict the generation of free cytoplasmic ^3H-myo-inositols on the plasma membranes of HEK293 cells expressing the Type I GnRHR and of αT4 gonadotropes expressing the marmoset Type II GnRHR. Prior to agonist stimulation the respective cells were incubated in inositol-free growth media supplemented with 1 μCi/ml ^3H-myoinositol for 48 h. G protein coupled receptor (GPCR)-induced activation of PLC-β results in the cleavage of PIP2 (incorporating tritium ^3H) into free lower inositol phosphates (IPns).

| Compound | potency at stimulating PTX-sensitive/Gαi-dependent MAPK isoform activation [1] | doses required to attenuate growth of androgen-resistant tumor cells [2] | anti-proliferative effect (viable cell number) [3] | anti-proliferative effect (viable cell number) [4] | effect of pertussis toxin pre-incubation on induced inositol phosphate accumulation (PLC-β; PTX 200 ng/ml 16 h, GnRH I 50 μM) | anti-proliferative effect (viable cell number) [5] | extent of ERK1/2 phosphorylation (activation) (ERK1/2 [6]) | extent of ERK1/2 activation (ERK1/2 [7]) | inositol phosphate accumulation (PLC-β; 60 minutes, 10 mM LiCl, doses up to 50 μM) | agonistic activity: liberated inositol phosphates at marmoset Type II GnRH receptor [8] |
| --- | --- | --- | --- | --- | --- | --- | --- | --- | --- | --- |
| CC(=O)N[C@H](Cc1ccc2ccccc2c1)C(=O)N[C@H](Cc1ccc(Cl)cc1)C(=O)N[C@H](Cc1cccnc1)C(=O)N[C@@H](CO)C(=O)N[C@@H](Cc1ccc(O)cc1)C(=O)N[C@H](CCCNC(N)=O)C(=O)N[C@@H](CC(C)C)C(=O)N[C@@H](CCCNC(=N)N)C(=O)N1CCC[C@H]1C(=O)N[C@H](C)C(N)=O [Cetrorelix] (Ac-[d2Nal][dPhe(4-Cl)][d3Pal]SY[dCit]LRP[dA]-NH2) | significantly less potent than Ant 135-25 | considerably higher doses | – | – | – | – | – | – | – | – |
| lysophosohatidic acid [LPA] | – | – | failed to significantly attenuate the cell growth | failed to significantly attenuate the cell growth | insensitive to PTX pre-incubation; also recorded: completely insensitive to the pertussis toxin | – | – | – | – | – |
| GnRH II: A second form of GnRH, identified in the mid-brain of many vertebrates ([pGlu]HWSHGWYPG-NH2; ends and bridges not checked; UniProt O43555 24-33, looked up) | – | – | potent and dose-dependent anti-proliferative effect; also recorded: clear dose-response relationships for the inhibition of cellular growth | – | – | greater anti-proliferative efficacy; also recorded: less potent than GnRH I at arresting the SCL60 cell growth | less effective | A similar pattern to JEG-3 of ligand activation | poor activity; also recorded: small capacity to induce inositol phosphate accumulation | yields an increase in free tritiated inositol phosphates; also recorded: results in a similar action to GnRH I upon the SCL60 cells |
